These results are taken from patent US7704525B2, “Lipid microparticles by cryogenic micronization” (Ares Trading S.A., priority 2000, dated 2010).

The nature of the data set: Partition coefficient octanol/water of Antide. The format is physicochemical. To be noted: 24 hours stirring at room temperature, RP-HPLC. The method, then: Partition coefficient: it was determined using octanol as organic phase and water as hydrophilic phase. The two phases were first saturated with each other for 24 hours at room temperature. Antide was then dissolved in the water phase at a concentration well below saturation. An equal volume of organic phase was subsequently added to the water phase and the mixture was kept under stirring for 24 hours at room temperature. Antide concentration in the two phases was determined by RP-HPLC and the partition coefficient was obtained from the ratio between the drug concentration in organic and water phase.
The resulting octanol/water coefficient was 8.56·10^−2

Take “N—Ac-D-2-NaI, D-pCiPhe, D-3-Pal, Ser, NicLys, D-NicLys, Leu, Ilys, Pro, D-Ala, NH2 [Antide]”: the octanol/water coefficient is listed as 8.56·10^−2.
